Assay results as given in US11224666B2, “Gadolinium contrast agents, scavenging methods, and scavenging system” (Boston Scientific Scimed, Inc., priority 2018, dated 2022).

Assay: example reaction demonstrating the sequestration reaction (strained alkyne with azide, in vitro, followed by NMR)
Conditions: allowed to react with azide-fluor 488 (representing a capture substrate), NMR tube

## OC[C@H]1[C@H]2CCC#CCC[C@@H]12 [(1R,8S,9s)-Bicyclonon-4-yn-9-ylmethanol]
  course of the sequestration (click) reaction: complete before a nuclear magnetic resonance (NMR) tube containing the reaction constituents could be inserted into the probe
